1 sequence from patent US20220313780A1, “METHODS AND COMPOSITIONS FOR TREATING INFLAMMATORY CONDITIONS” (THE SCRIPPS RESEARCH INSTITUTE, priority 2019, published 2022) can be followed below.

For experiment [1], the system named is caspase 1. As to the kind of experiment: Caspase 1 activity assay in PMA-differentiated THP1 cells treated with LPS and ATP. It counts as cell-based, human. The note with it: peptide at 2 nM-20 nM (tested 0-500 nM). On the procedure: THP1-null (THP1) cells were plated at a final concentration of 1×10^6/mL in 96 well plates and incubated with PMA (0.5 μM) for 3 hours 37° C. in supplemented RPMI. Media was subsequently changed every 24 hours for 3 days. Various subsets of wells were selected and cells were treated for 60 minutes at 37° C. in serum-free RPMI with: (A) APC (4 μg/mL), TR47 (50 μM-2 nM), scrTR47 (50 μM), SFLLRN (50 μM), TFLLRN (50 μM); (B) P3R (50 μM-500 nM), P3K (50 μM); (C) APC (4 or 1 μg/mL), TR47 (8 nM), P3R (500 nM) or TR47+P3R (8 nM and 500 nM, respectively); (D) TR47 (0-128 nM) (●)±P3R (500 nM) (□); (E) P3R (0-500 nM) (●)±TR47 (1 nM) (□). Following DPBS wash, cells were incubated with LPS (1 μg/mL) for 3 hours at 37° C. in serum-free RPMI. After a DPBS wash, cells were incubated with ATP (5 mM) in the presence or absence of 10 μM YVAD (caspase 1 inhibitor) or 2.5 μM ZVAD (pan-caspase inhibitor) for 45 minutes at 37° C., prior to performing the caspase 1 activity assay following manufacturer's directions measuring luminescence (relative luminescent units, RLU). (D & E) Experimental caspase 1 activity was normalized to YVAD (caspase 1 inhibitor) luminescence units. (A-E) Data points represent mean±S.D. of at least 3 independent experiments. *P<0.05 (vs. LPS+ATP); #P<0.05 (vs. LPS+ATP & APC, TR47 or P3R); **P<0.005 (vs. LPS+ATP & TR47+500 nM P3R); n.s. not significant.
THP1 cells were plated at a final concentration of 1×10^6/mL in 96 well plates and incubated with PMA (0.5 μM) for 3 hours 37° C. in supplemented RPMI. Media was subsequently changed every 24 hours for 3 days. Selected wells were treated with APC (4 μg/mL), (A) 50 μM or (B) 2 μM of P3R, P3Rm, P3R 51-65, P3R 51-59, P3R 54-59 or P3R 59-65 for 1 hour, washed with DPBS, and incubated with LPS (1 μg/mL) for 3 hours at 37° C. in serum-free RPMI. Cells were washed with DPBS and incubated with ATP (5 mM) in the presence or absence of 10 μM YVAD (caspase 1 inhibitor; C1i) or 2.5 μM ZVAD (pan-caspase inhibitor; pCi) for 45 minutes at 37° C., prior to performing the caspase 1 activity assay following manufacturer's directions measuring luminescence (relative luminescent units, RLU). (C) Diagram showing the PAR3 sequence, peptide sequences and relative (anti-inflammatory) activity. These include sequences of P3R (SEQ ID NO:4), P3Rm (SEQ ID NO:8), P3R 51-65 (SEQ ID NO:9), P3R 51-59 (SEQ ID NO:10), P3R 54-59 (SEQ ID NO:54) and P3R 59-65 (SEQ ID NO:55).
THP1 cells were plated at a final concentration of 1×10^6/mL in 96 well plates and incubated with PMA (0.5 μM) for 3 hours 37° C. in supplemented RPMI. Media was subsequently changed every 24 hours for 3 days. Selected wells were treated with APC (4 μg/mL), TR47, in (A) 9-mer (TR47 9-mer; NPNDKYEPF (SEQ ID NO:36)) or Ac-TR47 (Acylated TR47) at either 50 μM or 10 nM or (B) 50 μM of 16-mer-TR47, 8-mer-TR47, 6-mer-TR47, TR47 N−1, TR47 N−2, TR47 N−5, TR47AQ, TR47AD, TR47AA or TR48-54 for 1 hour, washed with DPBS, and incubated with LPS (1 μg/mL) for 3 hours at 37° C. in serum-free RPMI. Cells were washed with DPBS and incubated with ATP (5 mM) in the presence or absence of 10 μM YVAD (caspase 1 inhibitor; C1i) or 2.5 μM ZVAD (pan-caspase inhibitor; pCi) for 45 minutes at 37° C., prior to performing the caspase 1 activity assay following manufacturer's directions measuring luminescence (relative luminescent units, RLU). #P<0.001 (vs. LPS+ATP), **P<0.005 (vs. LPS+ATP), * (P<0.05 vs. LPS+ATP). (C) Diagram showing the PAR1 sequence, peptide sequences and relative (anti-inflammatory) activity. These include sequences of TR47 (SEQ ID NO:7), Ac-TR47 (SEQ ID NO:56), 16-mer-TR47 (SEQ ID NO:43), 9-mer-TR47 (SEQ ID NO:36), 8-mer-TR47 (SEQ ID NO:35), 6-mer-TR47 (SEQ ID NO:33), TR47 N−1 (SEQ ID NO:47), TR47 N−2 (SEQ ID NO:51), TR47 N−5 (SEQ ID NO:48), TR47AQ (SEQ ID NO:49), TR47AD (SEQ ID NO:52), TR47AA (SEQ ID NO:50) and TR48-54 (SEQ ID NO:53). […]

The subject of experiment [2] is endothelial cells (EA.hy926). Kind of experiment: Transendothelial Electric Resistance (TER) assay of thrombin-induced endothelial barrier disruption. Format: cell-based. An excerpt: The bottom curve in each panel of the figure is labeled as IIa for thrombin alone and represents the observed effects for thrombin (IIa) in the absence of peptide. In each panel, IIa was always present for each peptide added. The number in each panel indicates the concentration of each peptide for the respective curves. The peptide concentration of 0 is represented by the bottom curve labeled “IIa”. (A) the dose response inhibition over time of TER, expressed by Normalized Cell Index (NCI) by the PAR1 derived peptide P1(47-66) or TR47 using concentrations between 5 and 50 nM. (B) the dose response inhibition over time of NCI by the PAR3-derived peptide P3(42-65) or P3R using a 5 to 50 nM concentration range. (C) The NCI dose response inhibition over time by the short sequence PAR1-derived peptide P1(47-55) using a range of concentrations between 50 nM and 100 μM peptide. (D) The NCI dose response inhibition over time by the short sequence PAR3-derived peptide P3(42-54) using a range of concentrations between 1 μM and 200 μM peptide. (E) The NCI dose response inhibition over time by the hybrid peptide G10 in which the P1(47-55) peptide described in panel C was linked to a PAR3 peptide P3(51-65) by using 10 Gly residues. In this case the range of concentrations to study the dose response inhibition was between 3 and 50 nM peptide. An estimate for the percentage of activity for each peptide dilution in presence of thrombin can be quantified by obtaining the Area under the Curve (AUC) for each peptide dilution in comparison to the value for the AUC for thrombin alone in the absence of any peptide. These values were used to calculate the potency of each PAR peptide.
Transendothelial Electric Resistance (TER)-based assays were used to monitor the disruption of endothelial barrier integrity caused by thrombin. The anti-inflammatory, vasculoprotective actions of different PAR peptides for protecting against thrombin-induced vascular leakage on cultured endothelial cells (EA.hy926) were followed in real time using an iCELLigence machine (ACEA Biosciences Inc, San Diego, Calif.). EA.hy926 cells at a density of 10,000/well were pipetted into the wells of gold-plated microelectrode sensor (L8, Acea Biosciences). Subsequently, the increase of electrical resistance was monitored as cells grew and spread out on the microelectrodes to obtain confluence (reaching a plateau) over the TER plates connected to the recording instrument that detected in real time the changes in TER for each well. The effects of different PAR-derived peptides at the indicated concentrations were tested for dose-response inhibition of thrombin's effects when each of the peptide dilutions was added 30 min prior to the addition of thrombin (0.25 nM final in all wells). The percentage of inhibition was proportional to the increase in TER signal over time. Cell index values, reflecting TER signals, were normalized prior to addition of thrombin following manufacturer's directions.

As to “NPNDKYEPFGGGGGGGGGGFPFSALEGWTGATIT [G10, PAR1/PAR3 fusion peptide, P1(47-55) linked to P3(51-65) by 10 Glycine residues]”, the caspase-1 activity entry in experiment [1] is “a significant reduction in caspase-1 activity”. Further, in experiment [2] (peptide at 3 to 50 nM), the “effect on thrombin-induced disruption of endothelial barrier” value is “very significant effects”. Further, the “effectiveness relative to PAR3 peptide P3(42-54) alone” value in experiment [2] (protection of endothelial barrier integrity) was greater than 100 fold. The “potency relative to the long PAR1 peptide TR47” value in experiment [2] (protection of endothelial barrier integrity, 6 nM G10 compared to 50 nM PAR1 peptide) was roughly 8 fold. Also, the EC50 in experiment [2] (stabilization of endothelial cell barrier integrity, thrombin 0.25 nM, peptide added 30 min prior, read-out: half-maximum observed activity) was roughly 6 nM.
